Two compounds from US3984393A, “Aminoglycoside antibiotics” (The Upjohn Company, priority 1975, dated 1976) can be followed below.

For experiment [1], the system named is E. coli UC 45. As to the kind of experiment: standard microplate test in BHI Agar (MIC), E. coli UC 45. The settings on record: Escherichia coli, UC45, 20 h, E. coli UC 45, read-out: Minimum Inhibitory Concentration. The format is cell-based. The procedure: (§1) Compounds were also tested in a standard microplate test in Brain Heart Infusion (BHI) Agar, at a concentration of 1 mg/ml. Incubation is at 37° and end points are read at 20 hours. Brain Heart Infusion Agar (supplied by Difco Laboratories, Detroit, Michigan, U.S.A.) has the following composition:
(§2) Compounds (7β), (7α) and (9) were tested again along with compounds (11) and (14β) against a neamine control using the same conditions as given above.

In experiment [2] the test system is S. aureus UC 76. As to the kind of experiment: standard microplate test in BHI Agar (MIC), S. aureus UC 76. The format is cell-based, Staphylococcus aureus. Conditions: Staphylococcus aureus, UC76, 20 h, read-out: Minimum Inhibitory Concentration. On the procedure: as §1, §2
Experiment [3] relates to B. cereus. As to the kind of experiment: standard disc plate assay, 12.5 mm paper discs (zone of inhibition), B. cereus. The class given is cell-based, Bacillus cereus. Conditions: for zone of inhibition at 10000 µg/mL: 10 mg/ml; for active against Bacillus cereus: conclusion in words from the above results. The source says: (§3) The novel intermediates, disclosed herein, are useful to make novel aminoglycoside antibiotics. These novel aminoglycoside antibiotics are antibacterially active, and, thus, they can be used in various environments to eradicate or control sensitive bacteria. Following are in vitro antibacterial test results for representative compounds of the subject invention. The results were obtained with a standard disc plate assay using 12.5 mm paper discs.

The subject of experiment [4] is S. marcescens UC 131. The experiment can be described thus: standard microplate test in BHI Agar (MIC), S. marcescens UC 131. Conditions: Serratia marcescens, UC131, 20 h, S. marcescens UC 131, retest table, neamine control, read-out: Minimum Inhibitory Concentration. The class given is cell-based. The procedure:
as §1, §2

The test system of experiment [5] is St. faecalis UC 694. As to the kind of experiment: standard microplate test in BHI Agar (MIC), St. faecalis UC 694. The format is cell-based. The settings on record: Enterococcus faecalis, UC694, 20 h, read-out: Minimum Inhibitory Concentration. On the procedure:
as §1, §2

The subject of experiment [6] is S. aureus UC 570. As to the kind of experiment: standard microplate test in BHI Agar (MIC), S. aureus UC 570. Conditions: Staphylococcus aureus, UC570, 37°, 20 h, first table, *run on different day, read-out: Minimum Inhibitory Concentration. The format is cell-based. The procedure: (§4) Compounds were also tested in a standard microplate test in Brain Heart Infusion (BHI) Agar, at a concentration of 1 mg/ml. Incubation is at 37° and end points are read at 20 hours. Brain Heart Infusion Agar (supplied by Difco Laboratories, Detroit, Michigan, U.S.A.) has the following composition: […]

In experiment [7] the test system is P. rettgeri UC 339. As to the kind of experiment: standard microplate test in BHI Agar (MIC), P. rettgeri UC 339. The class given is cell-based. Conditions: Providencia rettgeri, UC339, 20 h, P. rettgeri UC 339, retest table, neamine control, read-out: Minimum Inhibitory Concentration. On the procedure:
as §1, §2

Experiment [8] relates to D. pneumoniae UC 41. As to the kind of experiment: standard microplate test in BHI Agar (MIC), D. pneumoniae UC 41. The format is cell-based. Conditions: Streptococcus pneumoniae, UC41, 20 h, D. pneumoniae UC 41, read-out: Minimum Inhibitory Concentration. The procedure: as §1, §2
Experiment [9] relates to P. morgani UC 3186. The experiment can be described thus: standard microplate test in BHI Agar (MIC), P. morgani UC 3186. The class given is cell-based. Conditions: 20 h, P. morgani UC 3186, retest table, neamine control, read-out: Minimum Inhibitory Concentration. On the procedure:
as §1, §2

The test system of experiment [10] is K. pneumoniae UC 58. As to the kind of experiment: standard microplate test in BHI Agar (MIC), K. pneumoniae UC 58. The format is cell-based. The settings on record: Klebsiella pneumoniae, UC58, 20 h. On the procedure: as §1, §2
The subject of experiment [11] is S. schottmuelleri UC 126. As to the kind of experiment: standard microplate test in BHI Agar (MIC), S. schottmuelleri UC 126. The settings on record: 20 h, read-out: Minimum Inhibitory Concentration. The class given is cell-based. On the procedure:
as §1, §2

Experiment [12] relates to S. aureus UC 746. As to the kind of experiment: standard microplate test in BHI Agar (MIC), S. aureus UC 746. The format is cell-based. The settings on record: Staphylococcus aureus, UC746, 37°, 20 h, first table, *run on different day, read-out: Minimum Inhibitory Concentration. On the procedure:
as §4

The test system of experiment [13] is B. subtilis. The experiment can be described thus: standard disc plate assay, 12.5 mm paper discs (zone of inhibition), B. subtilis. The format is cell-based, Bacillus subtilis.
From the text: as §3

In experiment [14] the test system is P. vulgaris UC 93. As to the kind of experiment: standard microplate test in BHI Agar (MIC), P. vulgaris UC 93. The format is cell-based. Conditions: Proteus vulgaris, UC93, 20 h, P. vulgaris UC 93, read-out: Minimum Inhibitory Concentration. On the procedure:
as §1, §2

Experiment [15] relates to P. mirabilis A-63. The experiment can be described thus: standard microplate test in BHI Agar (MIC), P. mirabilis A-63. The format is cell-based. Conditions: Proteus mirabilis, A63, 20 h, P. mirabilis A-63, retest table, neamine control, read-out: Minimum Inhibitory Concentration. The procedure: as §1, §2
Experiment [16] has as its system S. typhi TG-3. The experiment can be described thus: standard microplate test in BHI Agar (MIC), S. typhi TG-3. The format is cell-based. Conditions: Salmonella enterica, 20 h, read-out: Minimum Inhibitory Concentration. The procedure:
as §1, §2

The test system of experiment [17] is S. flexneri UC 143. The experiment can be described thus: standard microplate test in BHI Agar (MIC), S. flexneri UC 143. The class given is cell-based. Conditions: Shigella flexneri, UC143, 20 h, retest table, neamine control, read-out: Minimum Inhibitory Concentration. On the procedure:
as §1, §2

Experiment [18] deals with Ps. aeruginosa UC 95. The experiment can be described thus: standard microplate test in BHI Agar (MIC), Ps. aeruginosa UC 95. The format is cell-based. The settings on record: Pseudomonas aeruginosa, UC95, 20 h, Ps. aeruginosa UC 95, read-out: Minimum Inhibitory Concentration. On the procedure: as §1, §2
For experiment [19], the system named is S. hemolyticus UC 152. The experiment can be described thus: standard microplate test in BHI Agar (MIC), S. hemolyticus UC 152. The class given is cell-based, Streptococcus hemolyticus. Conditions: Streptococcus pyogenes, UC152, 20 h. On the procedure: as §1, §2
Where [20] appears, read: BHI agar, 37°, 20 h, first table, *run on different day.
The mark [21] stands for this setting: retest table, group (7β), (14β), neamine control.
Where [22] appears, read: retest table, group (9), (11), (7α), neamine control.

Converted amounts (≈) assume the structure as drawn. Like-named read-outs stand apart in the source and are kept apart here.

With `NC[C@H]1O[C@H](O[C@H]2[C@H](O)[C@@H](O[C@@H]3O[C@H](CO)[C@@H](O)[C@H]3O)[C@H](N)C[C@@H]2N)[C@H](N)[C@@H](O)[C@@H]1O` [(7β), 6-O-(β-D-Ribofuranosyl)neamine], the MIC in experiment [1] (setting [20]) stood at 500 µg/mL (≈ 1100 µM); in [1] (setting [21]), 1000 µg/mL (≈ 2200 µM); in [2] (S. aureus 284 UC 76, BHI agar, 37°, 20 h, first table, *run on different day), 1000 µg/mL (≈ 2200 µM); in experiment [2] (S. aureus UC 76, retest table, group (7β), (14β), neamine control), 500 µg/mL (≈ 1100 µM); in [4] (group (7β), (14β)) it was 1000 µg/mL (≈ 2200 µM); in experiment [5] (S. faecalis UC 694, retest table, group (7β), (14β), neamine control) it was 1000 µg/mL (≈ 2200 µM). Besides, the MIC in [5] (St. faecalis UC 694, BHI agar, 37°, 20 h, first table, *run on different day) was greater than 1000 µg/mL; in experiment [6], 1000 µg/mL (≈ 2200 µM); in [7] (group (7β), (14β)) it was 1000 µg/mL (≈ 2200 µM); in experiment [8] (setting [20]) it was greater than 1000 µg/mL; in [8] (setting [21]), 1000 µg/mL (≈ 2200 µM); in experiment [9] (group (7β), (14β)), 1000 µg/mL (≈ 2200 µM). For the same compound, the MIC in experiment [10] (read-out: Minimum Inhibitory Concentration, K. pneumoniae UC 58, BHI agar, 37°, 20 h, first table, *run on different day) stood at 62.5 µg/mL (≈ 138 µM); in experiment [10] (K. pneumoniae UC 58, retest table, group (7β), (14β), neamine control, read-out: Minimum Inhibitory Concentration) it was 250 µg/mL (≈ 550 µM); in [11] (BHI agar, 37°, first table, *run on different day), 250 µg/mL (≈ 550 µM); in experiment [11] (setting [21]), 500 µg/mL (≈ 1100 µM); in experiment [12], 500 µg/mL (≈ 1100 µM); in experiment [14] (setting [20]), 500 µg/mL (≈ 1100 µM). The MIC in [14] (setting [21]) was 1000 µg/mL (≈ 2200 µM); in experiment [15] (group (7β), (14β)), 1000 µg/mL (≈ 2200 µM); in [16] it was 1000 µg/mL (≈ 2200 µM); in experiment [17] (group (7β), (14β)), 1000 µg/mL (≈ 2200 µM); in experiment [18] (setting [20]) it was greater than 1000 µg/mL; in experiment [18] (setting [21]), 1000 µg/mL (≈ 2200 µM). The MIC in [19] (read-out: Minimum Inhibitory Concentration, S. hemolyticus UC 152, BHI agar, 37°, 20 h, first table, *run on different day) stood at 62.5 µg/mL (≈ 138 µM); in experiment [19] (S. hemolyticus UC 152, retest table, group (7β), (14β), neamine control, read-out: Minimum Inhibitory Concentration), 250 µg/mL (≈ 550 µM). Moreover, the zone of inhibition at 5000 µg/mL stood at 25 mm in experiment [3] (Bacillus cereus, B. cereus, 5 mg/ml) and 35 mm in experiment [13] (Bacillus subtilis, B. subtilis, 5 mg/ml). The zone of inhibition at 10000 µg/mL in experiment [3] (Bacillus cereus, B. cereus) amounted to 34 mm; in [13] (Bacillus subtilis, B. subtilis, 10 mg/ml), 38 mm. Also, in experiment [3], the “active against Bacillus cereus” value is recorded as “active”. In addition, the “active against Bacillus subtilis” value in experiment [13] (conclusion in words from the above results) was “active”.
As to `NC[C@H]1O[C@H](O[C@H]2[C@H](O)[C@@H](O)[C@H](N)C[C@@H]2N)[C@H](N)[C@@H](O[C@@H]2O[C@H](CO)[C@@H](O)[C@H](O)[C@H]2O)[C@@H]1O` [(11), 3'-O-(β-D-glucopyranosyl)neamine], the MIC in [1] (setting [22]) is 1000 µg/mL (≈ 2060 µM); in experiment [2] (S. aureus UC 76, retest table, group (9), (11), (7α), neamine control), 1000 µg/mL (≈ 2060 µM); in [4] (group (9), (11), (7α)), 1000 µg/mL (≈ 2060 µM); in experiment [5] (S. faecalis UC 694, retest table, group (9), (11), (7α), neamine control) it was 1000 µg/mL (≈ 2060 µM); in [7] (group (9), (11), (7α)), 1000 µg/mL (≈ 2060 µM); in [8] (setting [22]), 1000 µg/mL (≈ 2060 µM). Further, the MIC in experiment [9] (group (9), (11), (7α)) worked out at 1000 µg/mL (≈ 2060 µM); in experiment [10] (K. pneumoniae UC 58, retest table, group (9), (11), (7α), neamine control, read-out: Minimum Inhibitory Concentration) it was 1000 µg/mL (≈ 2060 µM); in experiment [14] (setting [22]) it was 1000 µg/mL (≈ 2060 µM); in [15] (group (9), (11), (7α)) it was 1000 µg/mL (≈ 2060 µM); in [16], 1000 µg/mL (≈ 2060 µM); in [17] (group (9), (11), (7α)) it was 1000 µg/mL (≈ 2060 µM). Moreover, the MIC in experiment [18] (setting [22]) was 1000 µg/mL (≈ 2060 µM); in experiment [19] (S. hemolyticus UC 152, retest table, group (9), (11), (7α), neamine control, read-out: Minimum Inhibitory Concentration), 1000 µg/mL (≈ 2060 µM). In [3] (Bacillus cereus, B. cereus), this compound came in with a zone of inhibition at 10000 µg/mL of 16 mm. For the same compound, the “active against Bacillus cereus” value in experiment [3] is “active”.

As a reminder, the zone of inhibition is the size of the clear area around the sample on an inoculated plate. A high value points to wide suppression of growth.
